Reference: ChEMBL document CHEMBL5705898 (Proc Natl Acad Sci U S A, 2014)

Experiments:
[1] = molecular target: T1, Histone-lysine N-methyltransferase SETD7 (Homo sapiens, UniProt Q8WTS6); test: Inhibition of wildtype full length human SETD7 (1 to 366 residues) expressed in Escherichia coli BL21 (DE3) V2R-pRARE using biotinylated H3 (1-25) peptide as substrate incubated for 1 hrs in presence of 3H-SAM by radioactivity based assay
T1 sequence (Q8WTS6 whole entry): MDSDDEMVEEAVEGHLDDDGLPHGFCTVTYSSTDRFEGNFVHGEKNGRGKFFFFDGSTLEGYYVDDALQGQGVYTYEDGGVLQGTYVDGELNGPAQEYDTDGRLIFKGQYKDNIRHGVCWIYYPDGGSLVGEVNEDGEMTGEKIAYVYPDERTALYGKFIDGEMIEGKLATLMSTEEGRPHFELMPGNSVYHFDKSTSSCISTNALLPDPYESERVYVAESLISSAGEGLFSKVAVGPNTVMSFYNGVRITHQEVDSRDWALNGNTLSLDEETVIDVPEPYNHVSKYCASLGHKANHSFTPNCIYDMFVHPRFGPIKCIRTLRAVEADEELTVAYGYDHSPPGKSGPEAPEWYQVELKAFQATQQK

[2] = molecular target: T1, Histone-lysine N-methyltransferase SETD7; test: Inhibition of full length human SETD7 (1 to 366 residues) expressed in Escherichia coli BL21 (DE3) V2R-pRARE assessed as apparent inhibition constant using biotinylated H3 (1-25) peptide as substrate incubated for 1 hrs in presence of 3H-SAM by morrison equation; details: read-out: Ki(app)
[3] = molecular target: T1, Histone-lysine N-methyltransferase SETD7; test: Binding affinity to biotinylated SETD7 (unknown origin) assessed as dissociation constant in presence of SAM in flow and wash buffer by SPR analysis
Homo sapiens [4] = species on record: Homo sapiens; test: Inhibition of central BZD receptor (unknown origin) at 10 uM relative to control
[5] = molecular target: Bombesin receptor subtype-3 (Homo sapiens) (UniProt P32247); test: Inhibition of human BB3 receptor at 10 uM relative to control
[6] = molecular target: Cholecystokinin receptor type A (Homo sapiens) (UniProt P32238); test: Inhibition of human CCK1 receptor at 10 uM relative to control
[7] = molecular target: D(3) dopamine receptor (Homo sapiens) (UniProt P35462); test: Inhibition of human D3 receptor at 10 uM relative to control
[8] = molecular target: Endothelin-1 receptor (Homo sapiens) (UniProt P25101); test: Inhibition of human ETA receptor at 10 uM relative to control
[9] = molecular target: Endothelin receptor type B (Homo sapiens) (UniProt P24530); test: Inhibition of human ETB receptor at 10 uM relative to control
[10] = molecular target: GABA-A receptor; alpha-1/beta-2/gamma-2 (Homo sapiens) (UniProt P14867+P47870+P18507); test: Inhibition of human GABA alpha1/beta2/gamma2 at 10 uM relative to control; format: protein-complex assay
[11] = molecular target: Gamma-aminobutyric acid receptor subunit beta-1 (Homo sapiens) (UniProt P18505); test: Inhibition of human GABA beta 1b at 10 uM relative to control
[12] = molecular target: Glutamate receptor ionotropic AMPA (Homo sapiens) (UniProt P48058+P42263+P42262+P42261); test: Inhibition of human AMPA receptor at 10 uM relative to control; format: protein-complex assay
[13] = molecular target: Histamine H2 receptor (Homo sapiens) (UniProt P25021); test: Inhibition of human H2 receptor at 10 uM relative to control
[14] = molecular target: MAO-A (Amine oxidase [flavin-containing] A) (Homo sapiens, UniProt P21397); test: Inhibition of MAO-A (unknown origin) at 10 uM relative to control
[15] = molecular target: Muscarinic acetylcholine receptor M4 (Homo sapiens) (UniProt P08173); test: Inhibition of human M4 receptor at 10 uM relative to control
[16] = molecular target: Neuropeptide Y receptor type 1 (Homo sapiens) (UniProt P25929); test: Inhibition of human Y1 receptor at 10 uM relative to control
[17] = molecular target: Platelet-activating factor receptor (Homo sapiens) (UniProt P25105); test: Inhibition of human PAF receptor at 10 uM relative to control
[18] = molecular target: Oxysterols receptor LXR-beta (Homo sapiens) (UniProt P55055); test: Inhibition of human LXRbeta at 10 uM relative to control
[19] = molecular target: 5-hydroxytryptamine receptor 1A (Homo sapiens) (UniProt P08908); test: Inhibition of human 5-HT1A receptor at 10 uM relative to control
Homo sapiens [20] = species on record: Homo sapiens; test: Inhibition of human 5-HT3 receptor at 10 uM relative to control
[21] = molecular target: 5-hydroxytryptamine receptor 4 (Homo sapiens) (UniProt Q13639); test: Inhibition of human 5-HT4e receptor at 10 uM relative to control
[22] = molecular target: Estrogen receptor (Homo sapiens) (UniProt P03372); test: Inhibition of human ERalpha at 10 uM relative to control
[23] = molecular target: Androgen receptor (Homo sapiens) (UniProt P10275); test: Inhibition of human AR at 10 uM relative to control
Homo sapiens [24] = species on record: Homo sapiens; test: Inhibition of human TR at 10 uM relative to control
Homo sapiens [25] = species on record: Homo sapiens; test: Inhibition of Ca2+ channel L, diltiazem site(unknown origin) at 10 uM relative to control
Homo sapiens [26] = species on record: Homo sapiens; test: Inhibition of Na+ channel site 2 (unknown origin) at 10 uM relative to control
[27] = molecular target: Sodium-dependent dopamine transporter (Homo sapiens) (UniProt Q01959); test: Inhibition of human dopamine transporter at 10 uM relative to control
[28] = molecular target: cGMP-dependent 3',5'-cyclic phosphodiesterase (Homo sapiens) (UniProt O00408); test: Inhibition of human PDE2A1 at 10 uM relative to control
[29] = molecular target: Angiotensin-converting enzyme (Homo sapiens) (UniProt P12821); test: Inhibition of human ACE at 10 uM relative to control
[30] = molecular target: Neprilysin (Homo sapiens) (UniProt P08473); test: Inhibition of human neutral endopeptidase at 10 uM relative to control
[31] = molecular target: Interstitial collagenase (Homo sapiens) (UniProt P03956); test: Inhibition of human MMP-1 at 10 uM relative to control
[32] = molecular target: Tyrosine-protein kinase ABL1 (Homo sapiens) (UniProt P00519); test: Inhibition of human Abl kinase at 10 uM relative to control
[33] = molecular target: Mitogen-activated protein kinase 1 (Homo sapiens) (UniProt P28482); test: Inhibition of human ERK2 (P42mapk) at 10 uM relative to control
[34] = molecular target: Catechol O-methyltransferase (Homo sapiens) (UniProt P21964); test: Inhibition of COMT (unknown origin) at 10 uM relative to control
[35] = molecular target: Kappa-type opioid receptor (Homo sapiens, UniProt P41145); test: Inhibition of human kappa opioid receptor

Sequence of Neprilysin (Homo sapiens) (P08473 whole entry): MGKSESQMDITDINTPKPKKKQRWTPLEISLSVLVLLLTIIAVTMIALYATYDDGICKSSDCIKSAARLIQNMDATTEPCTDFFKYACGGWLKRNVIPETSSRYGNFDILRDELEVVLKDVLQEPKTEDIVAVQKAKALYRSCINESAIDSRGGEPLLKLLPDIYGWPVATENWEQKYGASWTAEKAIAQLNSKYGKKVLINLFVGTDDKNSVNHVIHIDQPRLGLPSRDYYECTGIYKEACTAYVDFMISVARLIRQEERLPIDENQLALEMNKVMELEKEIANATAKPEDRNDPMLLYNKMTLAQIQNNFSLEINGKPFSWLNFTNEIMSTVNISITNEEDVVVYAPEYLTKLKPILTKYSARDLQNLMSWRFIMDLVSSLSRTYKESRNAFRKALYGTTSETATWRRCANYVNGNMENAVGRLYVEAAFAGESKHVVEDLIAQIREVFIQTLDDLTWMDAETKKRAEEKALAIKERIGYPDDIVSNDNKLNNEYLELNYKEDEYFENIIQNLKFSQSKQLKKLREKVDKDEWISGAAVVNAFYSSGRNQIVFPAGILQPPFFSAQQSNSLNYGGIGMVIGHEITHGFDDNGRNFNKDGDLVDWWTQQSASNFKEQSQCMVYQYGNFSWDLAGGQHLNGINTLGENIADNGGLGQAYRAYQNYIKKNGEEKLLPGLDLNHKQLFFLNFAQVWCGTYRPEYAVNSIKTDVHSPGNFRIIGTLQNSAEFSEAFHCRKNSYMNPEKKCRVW
Sequence of Muscarinic acetylcholine receptor M4 (Homo sapiens) (P08173 whole entry): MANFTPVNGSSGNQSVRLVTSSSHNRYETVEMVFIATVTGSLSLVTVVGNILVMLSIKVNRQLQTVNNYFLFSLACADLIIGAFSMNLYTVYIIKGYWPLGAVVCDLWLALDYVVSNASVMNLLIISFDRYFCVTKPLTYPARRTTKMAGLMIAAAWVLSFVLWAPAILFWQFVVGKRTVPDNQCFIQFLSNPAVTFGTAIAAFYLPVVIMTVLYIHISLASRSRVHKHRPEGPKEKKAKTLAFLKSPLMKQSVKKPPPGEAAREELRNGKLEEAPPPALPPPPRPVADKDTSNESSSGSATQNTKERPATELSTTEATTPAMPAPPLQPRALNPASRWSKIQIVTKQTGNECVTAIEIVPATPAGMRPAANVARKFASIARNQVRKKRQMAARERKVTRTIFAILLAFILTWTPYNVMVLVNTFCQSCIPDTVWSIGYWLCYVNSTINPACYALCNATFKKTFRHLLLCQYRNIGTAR
Sequence of Interstitial collagenase (Homo sapiens) (P03956 whole entry): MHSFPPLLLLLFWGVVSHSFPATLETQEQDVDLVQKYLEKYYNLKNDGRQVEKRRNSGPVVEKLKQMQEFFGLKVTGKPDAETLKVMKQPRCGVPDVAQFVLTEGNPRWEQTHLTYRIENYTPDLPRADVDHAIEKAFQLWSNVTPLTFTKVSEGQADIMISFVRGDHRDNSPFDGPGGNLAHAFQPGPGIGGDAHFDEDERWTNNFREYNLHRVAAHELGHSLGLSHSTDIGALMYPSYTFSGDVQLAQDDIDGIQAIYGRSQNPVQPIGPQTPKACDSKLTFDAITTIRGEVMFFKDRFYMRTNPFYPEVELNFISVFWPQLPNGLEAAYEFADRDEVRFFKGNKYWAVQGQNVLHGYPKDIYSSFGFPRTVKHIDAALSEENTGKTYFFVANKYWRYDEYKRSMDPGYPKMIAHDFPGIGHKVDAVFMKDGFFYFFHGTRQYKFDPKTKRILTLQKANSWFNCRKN
Sequence of MAO-A (Amine oxidase [flavin-containing] A) (P21397 whole entry): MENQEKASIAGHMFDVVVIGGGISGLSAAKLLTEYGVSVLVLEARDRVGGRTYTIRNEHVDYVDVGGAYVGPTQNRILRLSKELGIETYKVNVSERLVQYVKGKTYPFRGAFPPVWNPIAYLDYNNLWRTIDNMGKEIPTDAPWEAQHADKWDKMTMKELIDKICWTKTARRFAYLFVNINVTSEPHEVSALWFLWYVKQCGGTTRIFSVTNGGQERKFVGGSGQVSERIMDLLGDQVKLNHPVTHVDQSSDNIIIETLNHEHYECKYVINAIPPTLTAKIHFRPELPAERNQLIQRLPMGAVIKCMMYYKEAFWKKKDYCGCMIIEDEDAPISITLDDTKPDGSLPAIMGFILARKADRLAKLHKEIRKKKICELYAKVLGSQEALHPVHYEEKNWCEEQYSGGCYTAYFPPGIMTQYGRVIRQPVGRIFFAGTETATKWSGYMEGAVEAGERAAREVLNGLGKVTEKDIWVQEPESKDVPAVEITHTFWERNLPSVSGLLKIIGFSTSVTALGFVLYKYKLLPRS
Sequence of Mitogen-activated protein kinase 1 (Homo sapiens) (P28482 whole entry): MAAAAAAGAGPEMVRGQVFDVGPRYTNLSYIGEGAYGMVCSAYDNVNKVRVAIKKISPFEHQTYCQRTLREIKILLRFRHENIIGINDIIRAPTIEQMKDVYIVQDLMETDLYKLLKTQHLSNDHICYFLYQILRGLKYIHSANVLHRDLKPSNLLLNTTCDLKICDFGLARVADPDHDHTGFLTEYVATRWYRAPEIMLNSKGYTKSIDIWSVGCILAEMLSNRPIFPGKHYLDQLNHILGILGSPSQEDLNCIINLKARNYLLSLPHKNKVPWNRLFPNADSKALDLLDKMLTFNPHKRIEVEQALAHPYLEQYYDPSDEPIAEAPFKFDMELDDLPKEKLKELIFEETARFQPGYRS
Sequence of Angiotensin-converting enzyme (Homo sapiens) (P12821 whole entry): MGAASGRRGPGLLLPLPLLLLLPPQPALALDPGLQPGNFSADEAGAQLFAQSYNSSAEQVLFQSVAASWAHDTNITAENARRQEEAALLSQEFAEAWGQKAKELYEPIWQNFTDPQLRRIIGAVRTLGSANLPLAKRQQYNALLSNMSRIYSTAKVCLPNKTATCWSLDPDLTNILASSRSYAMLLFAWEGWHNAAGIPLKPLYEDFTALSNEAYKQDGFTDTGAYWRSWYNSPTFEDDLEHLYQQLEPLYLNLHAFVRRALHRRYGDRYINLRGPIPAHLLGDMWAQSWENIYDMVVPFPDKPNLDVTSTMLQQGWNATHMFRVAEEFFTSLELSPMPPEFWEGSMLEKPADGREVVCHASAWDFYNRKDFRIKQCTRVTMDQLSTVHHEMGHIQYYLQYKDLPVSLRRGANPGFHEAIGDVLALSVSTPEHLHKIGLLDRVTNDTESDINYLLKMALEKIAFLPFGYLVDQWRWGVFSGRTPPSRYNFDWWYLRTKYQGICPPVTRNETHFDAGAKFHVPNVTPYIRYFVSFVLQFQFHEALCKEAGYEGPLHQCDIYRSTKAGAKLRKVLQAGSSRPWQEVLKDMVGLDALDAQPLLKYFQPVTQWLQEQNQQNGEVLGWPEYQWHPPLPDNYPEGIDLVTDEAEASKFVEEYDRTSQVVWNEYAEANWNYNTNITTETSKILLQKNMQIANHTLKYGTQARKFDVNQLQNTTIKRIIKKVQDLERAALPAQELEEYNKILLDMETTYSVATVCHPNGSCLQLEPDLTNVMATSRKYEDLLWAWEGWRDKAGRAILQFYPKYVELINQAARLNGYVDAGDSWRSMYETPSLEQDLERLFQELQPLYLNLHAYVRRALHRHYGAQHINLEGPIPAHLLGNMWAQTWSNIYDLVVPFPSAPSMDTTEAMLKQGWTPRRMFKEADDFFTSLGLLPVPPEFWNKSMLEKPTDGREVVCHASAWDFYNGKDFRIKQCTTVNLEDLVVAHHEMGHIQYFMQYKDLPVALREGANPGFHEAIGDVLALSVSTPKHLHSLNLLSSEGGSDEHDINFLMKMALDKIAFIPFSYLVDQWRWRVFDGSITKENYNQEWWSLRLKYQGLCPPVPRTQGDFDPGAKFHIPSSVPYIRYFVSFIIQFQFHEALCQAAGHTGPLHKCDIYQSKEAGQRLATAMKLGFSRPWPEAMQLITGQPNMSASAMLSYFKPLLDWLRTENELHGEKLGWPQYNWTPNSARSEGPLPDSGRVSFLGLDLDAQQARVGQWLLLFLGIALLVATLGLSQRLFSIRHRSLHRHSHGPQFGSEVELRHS
Sequence of Neuropeptide Y receptor type 1 (Homo sapiens) (P25929 whole entry): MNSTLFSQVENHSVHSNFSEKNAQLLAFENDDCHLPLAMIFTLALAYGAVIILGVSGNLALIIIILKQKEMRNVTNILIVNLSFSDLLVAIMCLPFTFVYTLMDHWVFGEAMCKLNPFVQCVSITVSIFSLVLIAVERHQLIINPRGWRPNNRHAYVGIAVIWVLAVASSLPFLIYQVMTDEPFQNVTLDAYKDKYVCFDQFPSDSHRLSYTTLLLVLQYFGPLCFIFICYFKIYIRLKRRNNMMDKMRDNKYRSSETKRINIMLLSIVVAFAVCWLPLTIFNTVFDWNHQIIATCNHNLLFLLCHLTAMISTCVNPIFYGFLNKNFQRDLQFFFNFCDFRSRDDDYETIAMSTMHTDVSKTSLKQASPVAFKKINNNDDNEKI
Sequence of Sodium-dependent dopamine transporter (Homo sapiens) (Q01959 whole entry): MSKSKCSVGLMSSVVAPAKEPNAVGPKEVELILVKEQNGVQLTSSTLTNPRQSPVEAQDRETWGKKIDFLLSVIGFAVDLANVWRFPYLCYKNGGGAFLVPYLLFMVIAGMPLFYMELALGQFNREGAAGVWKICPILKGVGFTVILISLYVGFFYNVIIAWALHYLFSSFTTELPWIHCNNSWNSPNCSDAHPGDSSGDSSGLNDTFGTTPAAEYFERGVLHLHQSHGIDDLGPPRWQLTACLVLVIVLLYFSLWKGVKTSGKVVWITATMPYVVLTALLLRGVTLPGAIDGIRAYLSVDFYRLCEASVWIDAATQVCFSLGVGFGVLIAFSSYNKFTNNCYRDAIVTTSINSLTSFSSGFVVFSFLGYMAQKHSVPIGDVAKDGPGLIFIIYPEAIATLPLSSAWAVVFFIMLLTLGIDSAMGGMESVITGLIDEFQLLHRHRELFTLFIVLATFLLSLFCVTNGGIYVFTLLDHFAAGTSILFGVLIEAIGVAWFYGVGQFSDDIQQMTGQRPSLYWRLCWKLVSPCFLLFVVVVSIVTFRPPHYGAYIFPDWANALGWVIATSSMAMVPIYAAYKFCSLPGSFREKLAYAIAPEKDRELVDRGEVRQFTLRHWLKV

O=C([C@@H](Cc1cccc(C(F)(F)F)c1)NS(=O)(=O)c1cc(F)c2c(c1)CCNC2)N1CCCC1 was tested, and the IC50 [1] was 2 nM, the Ki [2] was 0.33 nM and the Kd [3] was 4.2 nM. It also gave an inhibition (Homo sapiens [4]) of 11%, an inhibition [5] of 61% and an inhibition [6] of 8%. For the same compound, the inhibition [7] was 43%, the inhibition [8] was 10% and the inhibition [9] was 12%. For the same compound, the inhibition [10] was -10%, the inhibition [11] was 5% and the inhibition [12] was 2%. It also gave an inhibition [13] of 0%, an inhibition at 10 µM [14] of 6% and an inhibition [15] of 19%. It also gave an inhibition [16] of -8%, an inhibition [17] of 6% and an inhibition [18] of 5%. For the same compound, the inhibition [19] was 0%, the inhibition (Homo sapiens [20]) was -2% and the inhibition [21] was -4%. For the same compound, the inhibition [22] was -5%, the inhibition [23] was 1% and the inhibition (Homo sapiens [24]) was 5%. For the same compound, the inhibition (Homo sapiens [25]) was 52%, the inhibition (Homo sapiens [26]) was 43% and the inhibition [27] was 2%. It also gave an inhibition [28] of -2%, an inhibition [29] of -4% and an inhibition [30] of -6%. It also gave an inhibition [31] of 1%, an inhibition [32] of 15% and an inhibition [33] of 5%. The inhibition [34] was -9% and the IC50 [35] was 3800 nM.
